Measured values published in the SangsterLogP compilation.

Key:
[1] = method code SF-AS, from DOI: 10.1016/j.ejps.2014.12.009, PMID: 25513709; settings: pH 7.4
[2] = method code SF-AS, from Rainer, G.; Krüger, U.; Klemm, K. (1981). Synthesis and physico-chemical properties of lonazolac-Ca, a new antiphlogistic/antirheumatic agent. Arzneimittelforschung, 31(4)649-55.
[3] = not given; remark: listed apart in the source
[4] = method code SF-HPLC, from DOI: 10.1016/0378-5173(90)90303-l; settings: pH 7.4
[5] = not given; remark: listed apart in the source
[6] = from Comini, L.; Núñez Montoya, S.; Argüello, G.; Cabrera, J. (2006). Partition coefficient (log P) determination of anthraquinone derivatives isolated from Heterophyllaea pustulata Hook, f. (Rubiaceae). …; settings: pH 7.4
[7] = not given; remark: listed apart in the source
[8] = method code SF, from DOI: 10.1021/acs.jmedchem.6b00554, PMID: 27500461; settings: pH 7.4
[9] = method code SF, from DOI: 10.1016/s0969-8051(99)00063-3, PMID: 10628565; settings: pH 7.4
[10] = method code SF-RC, from DOI: 10.1016/s0969-8051(03)00053-2; settings: pH 7.4
[11] = not given; remark: listed apart in the source
[12] = method code SF-AS, from DOI: 10.1021/jm9800301, PMID: 9748357; settings: pH 7.4
[13] = method code SF-HPLC, from DOI: 10.1016/0378-5173(85)90221-2; settings: pH 1.5
[14] = not given; remark: listed apart in the source
[15] = method code SF-AS, from DOI: 10.1016/s0928-0987(01)00170-1, PMID: 11500262; settings: pH 12.5
[16] = not given; remark: listed apart in the source
[17] = method code SF-AS, from PMID: 12408720; settings: pH 7.4
[18] = method code SF-RC, from DOI: 10.1021/jm701375u, PMID: 18307287; settings: pH 7.4
[19] = not given; remark: listed apart in the source
[20] = method code SF-AS, from DOI: 10.1016/s0006-291x(75)80410-4, PMID: 1111518
[21] = method code SF-RC, from DOI: 10.1016/j.nucmedbio.2008.11.010, PMID: 19217534; settings: pH 7.4
[22] = not given; remark: listed apart in the source
[23] = not given; remark: listed apart in the source
[24] = method code RP-HPLC, from DOI: 10.1016/0043-1354(79)90252-5; settings: pH 7.0
[25] = method code SF-HPLC, from DOI: 10.1016/j.ejmech.2009.03.025, PMID: 19386398; settings: pH 7.4
[26] = not given; remark: listed apart in the source
[27] = method code SF-AS, from DOI: 10.1002/jps.2600701116, PMID: 7299671; settings: pH 2.2
[28] = method code SF-AS, from DOI: 10.1081/jlc-100101656
[29] = not given; remark: listed apart in the source
[30] = method code SF-AS, from DOI: 10.1016/s0026-895x(25)10375-1
[31] = method code SF-HPLC, from DOI: 10.1021/jm100498u, PMID: 20704351; settings: pH 7.4
[32] = pH 7.5
[33] = not given; remark: listed apart in the source
[34] = method code SF, from DOI: 10.1016/j.ecoenv.2008.09.011, PMID: 19560203
[35] = method code SF-GLC, from DOI: 10.1584/jpestics.7.397
[36] = not given; remark: listed apart in the source
[37] = method code G, from Wang, L.; Li, H.; Wang, X.; Zhang, Z. (1993). Determination of aqueous solubilities and partition coefficients of substitutive ethylketone congeners by generator column. Huanjing Huaxue, 12(2)151-154.
[38] = method code SF-RC, from PMID: 3380859; settings: pH 1.0
[39] = not given; remark: listed apart in the source
[40] = method code SF-AS, from PMID: 6540096; settings: pH 7.5
[41] = pH 7.4
[42] = not given; remark: listed apart in the source
[43] = method code SF-AS, from DOI: 10.1248/cpb.42.1084, PMID: 8069960
[44] = method code SF-RC, from DOI: 10.17863/cam.48378, PMID: 23133799; settings: pH 7.4
[45] = method code SF, from Li, Y.; Sun, S.; Zheng, Y. (2012). Determination of partition coefficients of icariside-II and icaritin based on the HPLC retention time. Chinese Pharmaceutical Journal, 47, 122-126.
[46] = not given; remark: listed apart in the source

COC1=CC(=O)CC(C)C12Oc1c(Cl)c(OC)cc(OC)c1C2=O (configuration not stated)
logD [1]: 2.33

O=C(O)CCC(=O)c1ccc(-c2ccccc2)cc1
logP: 2.91

O=C(O)Cc1cn(-c2ccccc2)nc1-c1ccc(Cl)cc1
logP [2]: 4.13

CCCn1c(=O)c2[nH]c(-c3ccc(S(=O)(=O)O)cc3)nc2n(CCC)c1=O
logP [3]: -0.03

CN(C)C(=O)COC(=O)c1cc(S(N)(=O)=O)c(Cl)cc1NCc1ccco1
logD [4]: 1.18

CC(CC(=O)O)(N=O)c1cc(Oc2ccc(C(F)(F)F)cc2Cl)ccc1[N+](=O)[O-] (configuration not stated)
logP [5]: 4.3

COc1c(CO)c(O)cc2c1C(=O)c1ccccc1C2=O
logD [6]: 1.29

c1cc(-c2cnc3c(-c4ccncc4)cnn3c2)ccn1
logP [7]: 2.5

Cc1sc(=NC(=O)C2C(C)(C)C2(C)C)n(CCCCF)c1C
logD [8]: 3.22

CC(=O)OCC1C(OC(C)=O)C(OC(C)=O)C(OC(C)=O)CN1CCCI (configuration not stated)
logD [9]: 1.76

CCCn1c(=O)c2[nH]c(C3CCCC3)nc2n(C/C=C/I)c1=O
logD [10]: 2.96

COCCN1C=CC(=C2C(=O)c3ccc(Cl)cc3C2=O)C=C1
logP [11]: 2.78

O=C(NCc1ccc(O)cc1)C(=O)c1c[nH]c2ccc([N+](=O)[O-])cc12
logD [12]: 2.67

CCCc1c2c(c(O)c3c(=O)cc(C(=O)O)oc13)CCCC2
logD [13]: 4.4

CN(C)CCc1c[nH]c2ccc(CS(=O)(=O)N3CCCC3)cc12
logP [14]: 1.6

CN(C)CCCc1ccccc1-c1ccccc1
logD [15]: 5.53

C[C@]12N[C@H](Cc3ccccc31)c1ccccc12
logP [16]: 1.79

Cc1ccc(C(=O)Cn2c3c(sc2=N)CCCC3)cc1
logD [17]: 1.49

Brc1cccc(N2CCN(Cc3cnn4ccccc34)CC2)n1
logD [18]: 1.98

CCCCC(CC)CP(=O)(O)CC(CC)CCCC (configuration not stated)
logP [19]: 3.92

C=CCN1CCN(C(=O)N=NC(=O)N2CCN(CC=C)CC2)CC1
logP [20]: 0.79

N#Cc1ccc(C(c2ccc(C#N)cc2)n2cncn2)cc1
logD [21]: 1.84

Oc1ccc2ccccc2c1/N=N/c1ccccc1
logP [22]: 5.86

COc1cccc(N(C)C(=N)Nc2cc(SC)ccc2Cl)c1
logP [23]: 2.34

COc1ccc(C(c2ccc(OC)cc2)C(Cl)(Cl)Cl)cc1
logD [24]: 3.82

Cc1ccc(N=NC(C)C(=O)NCCc2ccc(O)cc2)cc1 (configuration not stated)
logD [25]: 3.9

Nc1cc2c3c(cccc3c1)-c1ccccc1-2
logP [26]: 3.14

C=C(CC(=O)c1ccc(-c2ccccc2Cl)cc1)C(=O)O
logD [27]: 3.32

CCc1onc(C)c1NC1=CC(=O)C(=O)c2ccccc21
logP [28]: 2.14

c1cnc(N2CCN(Cc3ccc4c(c3)OCO4)CC2)nc1
logP [29]: 2.84

CCN1CCC[C@H]1CNC(=O)c1c(OC)ccc(Br)c1OC
logP [30]: 2.1

CCOC(=O)c1cncn1C(C)c1ccc(C2(C(F)(F)F)N=N2)cc1 (configuration not stated)
logD [31]: 4.4

CCN1CCC[C@H]1CNC(=O)c1c(O)c(I)cc(OC)c1OC
logD [32]: 2.5

CCCCCCCCCCOc1ccc(C(=O)O)cc1
logP [33]: 5.77

CCOC(=O)C1=C[C@@H](OC(CC)CC)[C@H](NC(C)=O)[C@@H](N)C1
logP [34]: 1.21

CC(C)Oc1cccc(NC(=O)c2ccccc2C(F)(F)F)c1
logP [35]: 3.7

Cc1ccc(CCNc2cc(-c3n[nH]c(N)n3)ccn2)cc1C
logP [36]: 3.08

COc1ccc(C(=O)CSc2ccc(C)cc2)cc1
logP [37]: 2.47

Cn1c(CCCC(=O)O)nc2cc(N(CCCl)CCCl)ccc21
logD [38]: 0.44

N#Cc1ccc(OCC2CCN(C/C=C/I)CC2)cc1
logP [39]: 3.36

CCc1cc2c(s1)N(C)C(=O)CN=C2c1ccccc1Cl
logD [40]: 3.35

O=C(Nc1ccnc(NC(=O)C2CC2)c1)c1c(Cl)cccc1Cl
logD [41]: 3.4

N#Cc1ccc(CN2CCC(COC/C=C/I)CC2)cc1
logP [42]: 3.24

COc1ccc(Nc2ccnc3cc(Cl)ccc23)cc1
logP [43]: 4.94

FCCOCCON=C1C=C(C#Cc2ccccn2)CCC1
logD [44]: 1.9

COc1ccc(-c2coc3cc(O)ccc3c2=O)cc1
logP [45]: 3.32

O=[N+]([O-])c1cc(Cl)c(/N=N/c2ccc(N(CCO)CCO)cc2Cl)c(Cl)c1
logP [46]: 3.9
